Assay results from patent US6479435B1, “Diaryl ethers and processes for their preparation and herbicidal and desiccant compositions containing them” (ISK Americas Incorporated, priority 1997, dated 2002).

Tests used:
Format in all cases: in vivo
[1] = system: barnyardgrass (Echinochloa crusgalli, ECHCG); test: Post-emerge greenhouse herbicide test, phytotoxicity rating; settings: Echinochloa crus-galli, post-emergence, 336 h, 14 days after application, scale 0-100; for pest or weed control at 63 g/ha: rate 63 g ai/ha; for pest or weed control at 500 g/ha: rate 500 g ai/ha
How it was run: (§1)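 Scores use a 0 (no damage) to 100 (complete kill) scale, taken 14 days after a foliar spray. Acetone solutions with 0.25% v/v non-ionic surfactant were applied by track sprayer at 187 l/ha and 63-1000 g ai/ha to bottom-watered 2-3 leaf plants.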

[2] = system: sicklepod (Cassia obtusifolia, CASOB); test: as above; settings: Senna obtusifolia, post-emergence, 336 h, 14 days after application, scale 0-100; for pest or weed control at 63 g/ha: rate 63 g ai/ha; for pest or weed control at 500 g/ha: rate 500 g ai/ha
How it was run: as §1

[3] = system: green foxtail (Setaria viridis, SETVI); test: as above; settings: Setaria viridis, post-emergence, 336 h, 14 days after application, scale 0-100; for pest or weed control at 63 g/ha: rate 63 g ai/ha; for pest or weed control at 500 g/ha: rate 500 g ai/ha
How it was run: as §1

[4] = system: large crabgrass (Digitaria sanguinalis, DIGSA); test: as above; settings: Digitaria sanguinalis, post-emergence, 336 h, 14 days after application, scale 0-100; for pest or weed control at 63 g/ha: rate 63 g ai/ha; for pest or weed control at 500 g/ha: rate 500 g ai/ha
How it was run: as §1

[5] = system: redroot pigweed (Amaranthus retroflexus, AMARE); test: as above; settings: Amaranthus retroflexus, post-emergence, 336 h, 14 days after application, scale 0-100; for pest or weed control at 63 g/ha: rate 63 g ai/ha; for pest or weed control at 500 g/ha: rate 500 g ai/ha
How it was run: as §1

[6] = system: lambsquarters (Chenopodium album, CHEAL); test: as above; settings: Chenopodium album, post-emergence, 336 h, 14 days after application, scale 0-100; for pest or weed control at 63 g/ha: rate 63 g ai/ha; for pest or weed control at 500 g/ha: rate 500 g ai/ha
How it was run: as §1

[7] = system: ivyleaf morningglory (Ipomoea hederacea, IPOHE); test: as above; settings: Ipomoea, post-emergence, 336 h, 14 days after application, scale 0-100; for pest or weed control at 63 g/ha: rate 63 g ai/ha; for pest or weed control at 500 g/ha: rate 500 g ai/ha
How it was run: as §1

[8] = system: Johnsongrass (Sorghum halepense, SORHA); test: as above; settings: Sorghum halepense, post-emergence, 336 h, 14 days after application, scale 0-100; for pest or weed control at 63 g/ha: rate 63 g ai/ha; for pest or weed control at 500 g/ha: rate 500 g ai/ha
How it was run: as §1

[9] = system: velvetleaf (Abutilon theophrasti, ABUTH); test: as above; settings: Abutilon theophrasti, post-emergence, 336 h, 14 days after application, scale 0-100; for pest or weed control at 63 g/ha: rate 63 g ai/ha; for pest or weed control at 500 g/ha: rate 500 g ai/ha
How it was run: as §1

[10] = system: barnyardgrass (Echinochloa crusgalli, ECHCG); test: Pre-emerge greenhouse herbicide test, phytotoxicity rating; settings: Echinochloa crus-galli, pre-emergence, 336 h, 14 days after application, rating scale 0-100; for pest or weed control at 125 g/ha: Rate 125 g al/ha; for pest or weed control at 500 g/ha: Rate 500 g al/ha
How it was run: (§2)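 Visual 0–100 injury rating (100 = all plants dead) taken 14 days after treatment. Rates of 125–1000 g ai/ha in acetone, 187 l/ha, were sprayed onto soil one day post-sowing; pots were surface-watered to incorporate, then bottom-watered.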

[11] = system: sicklepod (Cassia obtusifolia, CASOB); test: as above; settings: Senna obtusifolia, pre-emergence, 336 h, 14 days after application, rating scale 0-100; for pest or weed control at 125 g/ha: Rate 125 g al/ha; for pest or weed control at 500 g/ha: Rate 500 g al/ha
How it was run: as §2

[12] = system: green foxtail (Setaria viridis, SETVI); test: as above; settings: Setaria viridis, pre-emergence, 336 h, 14 days after application, rating scale 0-100; for pest or weed control at 125 g/ha: Rate 125 g al/ha; for pest or weed control at 500 g/ha: Rate 500 g al/ha
How it was run: as §2

[13] = system: redroot pigweed (Amaranthus retroflexus, AMARE); test: as above; settings: Amaranthus retroflexus, pre-emergence, 336 h, 14 days after application, rating scale 0-100; for pest or weed control at 125 g/ha: Rate 125 g al/ha; for pest or weed control at 500 g/ha: Rate 500 g al/ha
How it was run: as §2

[14] = system: ivyleaf morningglory (Ipomoea hederacea, IPOHE); test: as above; settings: Ipomoea, pre-emergence, 336 h, 14 days after application, rating scale 0-100; for pest or weed control at 125 g/ha: Rate 125 g al/ha; for pest or weed control at 500 g/ha: Rate 500 g al/ha
How it was run: as §2

[15] = system: Johnsongrass (Sorghum halepense, SORHA); test: as above; settings: Sorghum halepense, pre-emergence, 336 h, 14 days after application, rating scale 0-100; for pest or weed control at 125 g/ha: Rate 125 g al/ha; for pest or weed control at 500 g/ha: Rate 500 g al/ha
How it was run: as §2

Compound	pest or weed control at 500 g/ha [1] [%]	pest or weed control at 500 g/ha [2] [%]	pest or weed control at 500 g/ha [3] [%]	pest or weed control at 500 g/ha [4] [%]	pest or weed control at 500 g/ha [5] [%]	pest or weed control at 500 g/ha [6] [%]	pest or weed control at 500 g/ha [7] [%]	pest or weed control at 500 g/ha [8] [%]	pest or weed control at 500 g/ha [9] [%]	pest or weed control at 125 g/ha [10] [%]	pest or weed control at 500 g/ha [10] [%]	pest or weed control at 125 g/ha [11] [%]	pest or weed control at 500 g/ha [11] [%]	pest or weed control at 125 g/ha [12] [%]	pest or weed control at 500 g/ha [12] [%]	pest or weed control at 125 g/ha [13] [%]	pest or weed control at 500 g/ha [13] [%]	pest or weed control at 125 g/ha [14] [%]	pest or weed control at 500 g/ha [14] [%]	pest or weed control at 125 g/ha [15] [%]	further results
Nn1c(C(F)(F)F)cc(=O)n(-c2cc(Oc3cc([N+](=O)[O-])cc(C(F)(F)F)c3)c(Cl)cc2F)c1=O [Compound 9-23, 1-Amino-3-[4-chloro-2-fluoro-5-(3-nitro-5-trifluoromethylphenoxy)phenyl]-6-trifluoromethyl-1,2,3,4-tetrahydropyrimidine-2,4-dione]	50	30	10	0	85	95	75	30	90	10	70	0	10	40	100	100	100	0	0	10	pest or weed control at 63 g/ha [1]: 0%; pest or weed control at 63 g/ha [2]: 10%; pest or weed control at 63 g/ha [3]: 0%; pest or weed control at 63 g/ha [4]: 0%; pest or weed control at 63 g/ha [5]: 85%; pest or weed control at 63 g/ha [6]: 70%; pest or weed control at 63 g/ha [7]: 50%; pest or weed control at 63 g/ha [8]: 0%; pest or weed control at 63 g/ha [9]: 45%; pest or weed control at 500 g/ha [15]: 70%
Nn1c(C(F)(F)F)cc(=O)n(-c2cc(Oc3ccccn3)c(Cl)cc2F)c1=O [Compound 9-15, 1-amino-3-[4-chloro-2-fluoro-5-(2pyridyloxy)phenyl]-6-trifluoromethyl-1,2,3,4-tetrahydropyrimidine-2,4-dione]	99	100	100	100	100	100	100	100	100	100	100	95	100	100	100	100	100	100	100	100	pest or weed control at 125 g/ha ([1]; rate 125 g ai/ha): 90%; pest or weed control at 125 g/ha ([2]; rate 125 g ai/ha): 100%; pest or weed control at 125 g/ha ([3]; rate 125 g ai/ha): 95%; pest or weed control at 125 g/ha ([4]; rate 125 g ai/ha): 90%; pest or weed control at 125 g/ha ([5]; rate 125 g ai/ha): 100%; pest or weed control at 125 g/ha ([6]; rate 125 g ai/ha): 100%; pest or weed control at 125 g/ha ([7]; rate 125 g ai/ha): 100%; pest or weed control at 125 g/ha ([8]; rate 125 g ai/ha): 95%; pest or weed control at 125 g/ha ([9]; rate 125 g ai/ha): 100%; pest or weed control at 500 g/ha [15]: 100%
Nn1c(C(F)(F)F)cc(=O)n(-c2cc(Oc3ncccc3[N+](=O)[O-])c(Cl)cc2F)c1=O [Compound 9-1, 1-amino-3-[4-chloro-2-fluoro-5-(3-nitro-2-pyridyloxy)phenyl]-6-trifluoromethyl-1,2,3,4-tetrahydropyrimidine-2,4-dione]	100	30	90	50	100	100	100	99	100	95	100	30	90	99	100	100	100	100	100	95	pest or weed control at 63 g/ha [1]: 30%; pest or weed control at 63 g/ha [2]: 30%; pest or weed control at 63 g/ha [3]: 20%; pest or weed control at 63 g/ha [4]: 20%; pest or weed control at 63 g/ha [5]: 100%; pest or weed control at 63 g/ha [6]: 95%; pest or weed control at 63 g/ha [7]: 100%; pest or weed control at 63 g/ha [8]: 70%; pest or weed control at 63 g/ha [9]: 100%; pest or weed control at 500 g/ha [15]: 99%
Nn1c(C(F)(F)F)cc(=O)n(-c2cc(Oc3ccccc3[N+](=O)[O-])c(Cl)cc2F)c1=O [Compound 9-21, 1-amino-3-[4-chloro-2-fluoro-5-(2-nitrophenoxy)phenyl]-6-trifluoromethyl-1,2,3,4-tetrahydropyrimidine-2,4-dione]	100	100	100	90	100	100	100	90	100	90	100	30	90	100	100	100	100	60	100	90	pest or weed control at 63 g/ha [1]: 70%; pest or weed control at 63 g/ha [2]: 100%; pest or weed control at 63 g/ha [3]: 90%; pest or weed control at 63 g/ha [4]: 30%; pest or weed control at 63 g/ha [5]: 100%; pest or weed control at 63 g/ha [6]: 100%; pest or weed control at 63 g/ha [7]: 100%; pest or weed control at 63 g/ha [8]: 60%; pest or weed control at 63 g/ha [9]: 100%; pest or weed control at 500 g/ha [15]: 100%
